The supplement of paper PMC10307832

Legend:
Assay in all cases: relative viability (nuclei count vs DMSO), 5 days (fraction); higher = more cells survive
[1] = compound: CCOc1cc2ncc(C#N)c(Nc3ccc(OCc4ccccn4)c(Cl)c3)c2cc1NC(=O)/C=C/CN(C)C [Neratinib]
Summary of the method: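 Five library-drug doses spaced by √10 were pinned onto vehicle-anchored 1536-well plates of lung cancer cell lines that had been kept overnight at 37 °C. Cells went 5 days without medium change, then were fixed, permeabilised and Hoechst-stained together, imaged at 4× and counted by MetaXpress. Viability is the ratio of treated-well to vehicle-well nuclei, taken as a median over plates. Plates required control CV below 25% and at least one doubling.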

[2] = compound: CCOc1cc2ncc(C#N)c(Nc3ccc(OCc4ccccn4)c(Cl)c3)c2cc1NC(=O)/C=C/CN(C)C [Neratinib] + COc1cc2c(Oc3ccc(NC(=O)C4(C(=O)Nc5ccc(F)cc5)CC4)cc3F)ccnc2cc1OCCCN1CCOCC1 [Foretinib] (partner 0.25 µM)
Summary of the method: (§1)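 Lung cancer cell lines in 1536-well plates got either a single drug or a fixed anchor-drug dose together with five library-drug doses (not always all listed) in √10 steps, by pin tool, on the day after seeding. Nuclei were counted after 5 days, and relative viability is the treated-to-vehicle ratio of nuclei counts. Values are medians of duplicate plates.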

[3] = compound: CCOc1cc2ncc(C#N)c(Nc3ccc(OCc4ccccn4)c(Cl)c3)c2cc1NC(=O)/C=C/CN(C)C [Neratinib] + CS(=O)(=O)N1CCN(Cc2cc3nc(-c4cccc5[nH]ncc45)nc(N4CCOCC4)c3s2)CC1 [Pictilisib] (partner 1 µM)
Summary of the method: as §1

[4] = compound: CCOc1cc2ncc(C#N)c(Nc3ccc(OCc4ccccn4)c(Cl)c3)c2cc1NC(=O)/C=C/CN(C)C [Neratinib] + O=C(c1cc(Cc2n[nH]c(=O)c3ccccc23)ccc1F)N1CCN(C(=O)C2CC2)CC1 [Olaparib] (partner 8 µM)
Summary of the method: as §1

[5] = compound: CCOc1cc2ncc(C#N)c(Nc3ccc(OCc4ccccn4)c(Cl)c3)c2cc1NC(=O)/C=C/CN(C)C [Neratinib] + CS(=O)(=O)CCNCc1ccc(-c2ccc3ncnc(Nc4ccc(OCc5cccc(F)c5)c(Cl)c4)c3c2)o1 [Lapatinib] (partner 2 µM)
Summary of the method: as §1

[6] = compound: CCOc1cc2ncc(C#N)c(Nc3ccc(OCc4ccccn4)c(Cl)c3)c2cc1NC(=O)/C=C/CN(C)C [Neratinib] + C[C@]1(O)C[C@@H](c2nc(-c3ccc4ccc(-c5ccccc5)nc4c3)c3c(N)nccn32)C1 [Linsitinib] (partner 1 µM)
Summary of the method: as §1

[7] = compound: CCOc1cc2ncc(C#N)c(Nc3ccc(OCc4ccccn4)c(Cl)c3)c2cc1NC(=O)/C=C/CN(C)C [Neratinib] + C[C@@H](Oc1cc(-c2cnn(C3CCNCC3)c2)cnc1N)c1c(Cl)ccc(F)c1Cl [Crizotinib] (partner 1 µM)
Summary of the method: as §1

[8] = compound: CCOc1cc2ncc(C#N)c(Nc3ccc(OCc4ccccn4)c(Cl)c3)c2cc1NC(=O)/C=C/CN(C)C [Neratinib] + CC(C)C[C@H](NC(=O)[C@H](Cc1ccccc1)NC(=O)c1cnccn1)B(O)O [Bortezomib] (partner 0.002 µM)
Summary of the method: as §1

[9] = compound: CCOc1cc2ncc(C#N)c(Nc3ccc(OCc4ccccn4)c(Cl)c3)c2cc1NC(=O)/C=C/CN(C)C [Neratinib] + Cc1nc(NC(=O)N2CCC[C@H]2C(N)=O)sc1-c1ccnc(C(C)(C)C(F)(F)F)c1 [Alpelisib] (partner 2 µM)
Summary of the method: as §1

[10] = compound: CCOc1cc2ncc(C#N)c(Nc3ccc(OCc4ccccn4)c(Cl)c3)c2cc1NC(=O)/C=C/CN(C)C [Neratinib] + CC1(C)CCC(c2ccc(Cl)cc2)=C(CN2CCN(c3ccc(C(=O)NS(=O)(=O)c4ccc(N[C@H](CCN5CCOCC5)CSc5ccccc5)c(S(=O)(=O)C(F)(F)F)c4)cc3)CC2)C1 [Navitoclax] (partner 0.5 µM)
Summary of the method: as §1

[11] = compound: CCOc1cc2ncc(C#N)c(Nc3ccc(OCc4ccccn4)c(Cl)c3)c2cc1NC(=O)/C=C/CN(C)C [Neratinib] + Cc1cc(Nc2cc(N3CCN(C)CC3)nc(Sc3ccc(NC(=O)C4CC4)cc3)n2)n[nH]1 [Tozasertib] (partner 0.1 µM)
Summary of the method: as §1

[12] = compound: CCOc1cc2ncc(C#N)c(Nc3ccc(OCc4ccccn4)c(Cl)c3)c2cc1NC(=O)/C=C/CN(C)C [Neratinib] + Nc1nc2[nH]cc(CCc3ccc(C(=O)N[C@@H](CCC(=O)O)C(=O)O)cc3)c2c(=O)[nH]1 [Pemetrexed] (partner 0.2 µM)
Summary of the method: as §1

[13] = compound: CCOc1cc2ncc(C#N)c(Nc3ccc(OCc4ccccn4)c(Cl)c3)c2cc1NC(=O)/C=C/CN(C)C [Neratinib] + CC(=O)c1c(C)c2cnc(Nc3ccc(N4CCNCC4)cn3)nc2n(C2CCCC2)c1=O [Palbociclib] (partner 0.5 µM)
Summary of the method: as §1

[14] = compound: CCOc1cc2ncc(C#N)c(Nc3ccc(OCc4ccccn4)c(Cl)c3)c2cc1NC(=O)/C=C/CN(C)C [Neratinib] + Cc1nc(Nc2ncc(C(=O)Nc3c(C)cccc3Cl)s2)cc(N2CCN(CCO)CC2)n1 [Dasatinib] (partner 0.075 µM)
Summary of the method: as §1

[15] = compound: CCOc1cc2ncc(C#N)c(Nc3ccc(OCc4ccccn4)c(Cl)c3)c2cc1NC(=O)/C=C/CN(C)C [Neratinib] + CCNC(=O)c1noc(-c2cc(C(C)C)c(O)cc2O)c1-c1ccc(CN2CCOCC2)cc1 [Luminespib] (partner 0.01 µM)
Summary of the method: as §1

[16] = compound: CCOc1cc2ncc(C#N)c(Nc3ccc(OCc4ccccn4)c(Cl)c3)c2cc1NC(=O)/C=C/CN(C)C [Neratinib] + Nc1ncn([C@H]2C[C@H](O)[C@@H](CO)O2)c(=O)n1 [Decitabine] (partner 2 µM)
Summary of the method: as §1

[17] = compound: CCOc1cc2ncc(C#N)c(Nc3ccc(OCc4ccccn4)c(Cl)c3)c2cc1NC(=O)/C=C/CN(C)C [Neratinib] + COc1cccc2cc(-c3nc([C@H]4CC[C@H](C(=O)O)CC4)n4ncnc(N)c34)[nH]c12 [OSI-027] (partner 0.5 µM)
Summary of the method: as §1

[18] = compound: CCOc1cc2ncc(C#N)c(Nc3ccc(OCc4ccccn4)c(Cl)c3)c2cc1NC(=O)/C=C/CN(C)C [Neratinib] + N=C(N)NC(=N)NCCc1ccccc1 [Phenformin] (partner 250 µM)
Summary of the method: as §1

[19] = compound: CCOc1cc2ncc(C#N)c(Nc3ccc(OCc4ccccn4)c(Cl)c3)c2cc1NC(=O)/C=C/CN(C)C [Neratinib] + NC(=O)Nc1cc(-c2cccc(F)c2)sc1C(=O)N[C@H]1CCCNC1 [AZD7762] (partner 0.2 µM)
Summary of the method: as §1

[20] = compound: CCOc1cc2ncc(C#N)c(Nc3ccc(OCc4ccccn4)c(Cl)c3)c2cc1NC(=O)/C=C/CN(C)C [Neratinib] + O=C(CCCCCCC(=O)Nc1ccccc1)NO [Vorinostat] (partner 1 µM)
Summary of the method: as §1

[21] = compound: CCOc1cc2ncc(C#N)c(Nc3ccc(OCc4ccccn4)c(Cl)c3)c2cc1NC(=O)/C=C/CN(C)C [Neratinib] + CC(=O)Nc1cccc(-n2c(=O)n(C3CC3)c(=O)c3c(Nc4ccc(I)cc4F)n(C)c(=O)c(C)c32)c1 [Trametinib] (partner 0.02 µM)
Summary of the method: as §1

## NCI-H1299
[1]; 0.01 µM
  relative viability: 1.01
[1]; 0.1 µM
  relative viability: 0.89
[1]; 0.3162 µM
  relative viability: 1.03
[1]; 1 µM
  relative viability: 1.06
[2]; first compound 0.01 µM
  relative viability: 1.1
[2]; first compound 0.03162 µM
  relative viability: 1.09
[2]; first compound 0.1 µM
  relative viability: 1.07
[2]; first compound 0.3162 µM
  relative viability: 1.12
[2]; first compound 1 µM
  relative viability: 1.12
[3]; first compound 0.01 µM
  relative viability: 0.729
[3]; first compound 0.03162 µM
  relative viability: 0.901
[3]; first compound 0.1 µM
  relative viability: 0.805
[3]; first compound 0.3162 µM
  relative viability: 0.459
[3]; first compound 1 µM
  relative viability: 0.28
[4]; first compound 0.01 µM
  relative viability: 0.954
[4]; first compound 0.03162 µM
  relative viability: 0.983
[4]; first compound 0.1 µM
  relative viability: 0.85
[4]; first compound 0.3162 µM
  relative viability: 0.99
[4]; first compound 1 µM
  relative viability: 0.974
[5]; first compound 0.01 µM
  relative viability: 0.969
[5]; first compound 0.03162 µM
  relative viability: 0.957
[5]; first compound 0.1 µM
  relative viability: 0.938
[5]; first compound 0.3162 µM
  relative viability: 0.976
[5]; first compound 1 µM
  relative viability: 1.04
[6]; first compound 0.01 µM
  relative viability: 0.996
[6]; first compound 0.03162 µM
  relative viability: 1.07
[6]; first compound 0.1 µM
  relative viability: 0.846
[6]; first compound 0.3162 µM
  relative viability: 0.944
[7]; first compound 0.01 µM
  relative viability: 0.991
[7]; first compound 0.03162 µM
  relative viability: 1.02
[7]; first compound 0.1 µM
  relative viability: 0.95
[7]; first compound 0.3162 µM
  relative viability: 0.991
[7]; first compound 1 µM
  relative viability: 1.06
[8]; first compound 0.01 µM
  relative viability: 1.03
[8]; first compound 0.03162 µM
  relative viability: 1
[8]; first compound 0.1 µM
  relative viability: 0.965
[8]; first compound 0.3162 µM
  relative viability: 1.03
[8]; first compound 1 µM
  relative viability: 1.1
[9]; first compound 0.01 µM
  relative viability: 1
[9]; first compound 0.3162 µM
  relative viability: 1.04
[9]; first compound 1 µM
  relative viability: 1.04
[10]; first compound 0.01 µM
  relative viability: 1.04
[10]; first compound 0.03162 µM
  relative viability: 1.06
[10]; first compound 0.1 µM
  relative viability: 0.986
[10]; first compound 0.3162 µM
  relative viability: 1.07
[10]; first compound 1 µM
  relative viability: 1.11

## NCI-H522
[1]; 0.01 µM
  relative viability: 0.982
[1]; 0.1 µM
  relative viability: 0.876
[1]; 0.3162 µM
  relative viability: 0.692
[1]; 1 µM
  relative viability: 0.59
[11]; first compound 0.01 µM
  relative viability: 0.573
[11]; first compound 0.03162 µM
  relative viability: 0.608
[11]; first compound 0.1 µM
  relative viability: 0.571
[11]; first compound 0.3162 µM
  relative viability: 0.46
[11]; first compound 1 µM
  relative viability: 0.499
[12]; first compound 0.01 µM
  relative viability: 1
[12]; first compound 0.03162 µM
  relative viability: 0.943
[12]; first compound 0.1 µM
  relative viability: 0.72
[12]; first compound 0.3162 µM
  relative viability: 0.673
[12]; first compound 1 µM
  relative viability: 0.657
[13]; first compound 0.01 µM
  relative viability: 1.22
[13]; first compound 0.03162 µM
  relative viability: 0.759
[13]; first compound 0.1 µM
  relative viability: 0.719
[13]; first compound 0.3162 µM
  relative viability: 0.733
[13]; first compound 1 µM
  relative viability: 0.538
[14]; first compound 0.01 µM
  relative viability: 0.94
[14]; first compound 0.03162 µM
  relative viability: 0.809
[14]; first compound 0.1 µM
  relative viability: 0.818
[14]; first compound 0.3162 µM
  relative viability: 0.786
[14]; first compound 1 µM
  relative viability: 0.664
[4]; first compound 0.01 µM
  relative viability: 0.598
[4]; first compound 0.03162 µM
  relative viability: 0.5
[4]; first compound 0.1 µM
  relative viability: 0.558
[4]; first compound 0.3162 µM
  relative viability: 0.573
[4]; first compound 1 µM
  relative viability: 0.459
[15]; first compound 0.01 µM
  relative viability: 1.12
[15]; first compound 0.03162 µM
  relative viability: 1.12
[15]; first compound 0.1 µM
  relative viability: 1.09
[15]; first compound 0.3162 µM
  relative viability: 0.913
[15]; first compound 1 µM
  relative viability: 0.655
[16]; first compound 0.01 µM
  relative viability: 0.719
[16]; first compound 0.03162 µM
  relative viability: 0.671
[16]; first compound 0.1 µM
  relative viability: 0.711
[16]; first compound 0.3162 µM
  relative viability: 0.557
[16]; first compound 1 µM
  relative viability: 0.573
[17]; first compound 0.01 µM
  relative viability: 0.687
[17]; first compound 0.03162 µM
  relative viability: 0.702
[17]; first compound 0.1 µM
  relative viability: 0.605
[17]; first compound 0.3162 µM
  relative viability: 0.548
[17]; first compound 1 µM
  relative viability: 0.497
[18]; first compound 0.01 µM
  relative viability: 0.747
[18]; first compound 0.03162 µM
  relative viability: 0.619
[18]; first compound 0.1 µM
  relative viability: 0.663
[18]; first compound 0.3162 µM
  relative viability: 0.548
[18]; first compound 1 µM
  relative viability: 0.604
[19]; first compound 0.01 µM
  relative viability: 0.781
[19]; first compound 0.03162 µM
  relative viability: 0.844
[19]; first compound 0.1 µM
  relative viability: 0.878
[19]; first compound 0.3162 µM
  relative viability: 0.804
[19]; first compound 1 µM
  relative viability: 0.718
[20]; first compound 0.01 µM
  relative viability: 1.04
[20]; first compound 0.03162 µM
  relative viability: 1.01
[20]; first compound 0.1 µM
  relative viability: 0.678
[20]; first compound 0.3162 µM
  relative viability: 0.718
[20]; first compound 1 µM
  relative viability: 0.626
[21]; first compound 0.01 µM
  relative viability: 0.756
[21]; first compound 0.03162 µM
  relative viability: 0.923
[21]; first compound 0.1 µM
  relative viability: 0.758
[21]; first compound 0.3162 µM
  relative viability: 0.599
[21]; first compound 1 µM
  relative viability: 0.543
